Values quoted from earlier work in patent publication US12509559B2, “Bacterial beta-lactamase responsive hydrogels” (Brown University, priority 2019, dated 2025).

Conditions: adamantane in β-cyclodextrin cavity

C1C2CC3CC1CC(C2)C3 [adamantane]
association constant, K: ~10^5 M^−1
